In patent publication US20240317727A1 (Duke University, priority 2018, published 2024) one finds ΔTm data, which are given here for 56 molecules.

The target of the first assay is T1, recombinant HSF1 DNA-binding domain (DBD) (Homo sapiens, UniProt Q00613).
T1 sequence (Q00613 15-120): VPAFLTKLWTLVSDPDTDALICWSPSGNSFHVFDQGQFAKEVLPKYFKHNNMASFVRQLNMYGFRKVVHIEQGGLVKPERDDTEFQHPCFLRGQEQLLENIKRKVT
The experiment in a line: Differential Scanning Fluorimetry (DSF), HSF1 DBD melting temperature. The settings on record: Table 1; 5 μM HSF1 DBD, 25PM Compound; positive = stabilizes, negative = destabilizes HSF1. (In general: Differential scanning fluorimetry follows unfolding on heating by fluorescence.)
For the molecule `O=S1(=O)N=C(Nc2ccc(F)cc2)C(Nc2ccc(Cl)c(C(F)(F)F)c2)=N1` [Compound 0033, N3-[4-chloro-3-(trifluoromethyl)phenyl]-N4-(4-fluorophenyl)-1,1-dioxo-1,2,5-thiadiazole-3,4-diamine], the ΔTm at 25 µM came out at 1.9 °C. Still for that read-out and setting: with `O=C(Nc1ccc(F)c(F)c1)Nc1ccc(Cl)c([N+](=O)[O-])c1` [Compound 0034, 1-(4-chloro-3-nitrophenyl)-3-(3,4-difluorophenyl)urea] the figure was 5.7 °C. On to `O=C(Nc1cccc(C(F)(F)F)c1)Nc1ccc2nonc2c1` [Compound 0035], for which the ΔTm at 25 µM came out at 6.44 °C. The same measure, in the same setting: in the case of `COc1ccc(NC(=O)Nc2ccc(Cl)cc2)cc1` [Compound 0036, 1-(4-chlorophenyl)-3-(4-methoxyphenyl)urea] it was 2.61 °C. On to `O=C(N/N=C/c1cccnc1)c1ccc(=O)[nH]n1` [Compound 0037], for which the ΔTm at 25 µM is -9.74 °C. The same measure, in the same setting: in the case of `O=[N+]([O-])c1cc(/C=N/Nc2ccc(Br)c(Cl)c2)cs1` [Compound 0038] it was 7.27 °C. In the case of `Cc1cc(N)c2ccccc2c1O` [Compound 0039], the ΔTm at 25 µM is -4.28 °C. With `Cc1cc(C(C#N)c2ccc(Cl)cc2)c(Cl)cc1NC(=O)c1cc(I)cc(I)c1O` (centres unmarked) [Compound 0040], the ΔTm at 25 µM is -7.95 °C. In the case of `CC(=O)NC1C(O)OC(OS(=O)(=O)O)C(O)C1OC1CC(C(=O)O)C(O)C(O)C1O` (centres unmarked) [Compound 0041], the ΔTm at 25 µM was -3.11 °C.

In the case of `CC1CC(=O)Oc2cc(Oc3c([N+](=O)[O-])cc(C(F)(F)F)cc3[N+](=O)[O-])ccc21` (centres unmarked) [Compound 0042], the ΔTm at 25 µM was -6.23 °C. For the molecule `CCOC(=O)N1CCN(C2=Nc3cc(Cl)ccc3C(C)C2)CC1` (centres unmarked) [Compound 0043], the ΔTm at 25 µM was -9.07 °C.

For `O=C(Nc1ccc(Cl)c(Cl)c1)Nc1ccc(Cl)c([N+](=O)[O-])c1` [Compound 0044, 1-(4-chloro-3-nitrophenyl)-3-(3,4-dichlorophenyl)urea], the ΔTm at 25 µM is 2.33 °C.

Regarding `O=C(Nc1cccc(Cl)c1)O/N=C/c1ccc(F)cc1` [Compound 0045], the ΔTm is reported as −8.21. With `Cc1ccc(NC(=O)Nc2ccc(Cl)c([N+](=O)[O-])c2)cc1` [Compound 0046, 1-(4-chloro-3-nitrophenyl)-3-(p-tolyl)urea], the ΔTm at 25 µM is 4.3 °C.

As to `N#CN=C(Nc1ccc(F)cc1)Nc1ccc(Cl)c([N+](=O)[O-])c1` [Compound 0047, 1-(4-chloro-3-nitro-phenyl)-2-cyano-3-(4-fluorophenyl)guanidine], the ΔTm at 25 µM turned out to be 0.75 °C. With `O=C(Nc1ccc(Cl)cc1)Nc1ccc(Cl)c([N+](=O)[O-])c1` [Compound 0048, 1-(4-chloro-3-nitrophenyl)-3-(4-chlorophenyl)urea], the ΔTm at 25 µM is 2.61 °C. Turning to `O=C(Nc1ccc(Cl)cc1)Nc1cccc([N+](=O)[O-])c1` [Compound 0049, 1-(4-chlorophenyl)-3-(3-nitrophenyl)urea], the ΔTm at 25 µM came out at 3.11 °C.

For the molecule `O=C(Nc1cccc(Cl)c1)O/N=C/c1ccc(F)cc1` [Compound 0051], the ΔTm is given as −6.91. As for `CC(NC(=O)CSc1nnc(-c2ccccc2O)n1-c1ccccc1)c1ccccc1` (centres unmarked) [Compound 0052], the ΔTm at 25 µM is -11 °C.

`N=C(N)NC(=O)c1nc(Cl)c(N)nc1N` [Compound 0053]: the ΔTm at 25 µM was -10.1 °C. On to `CCOC(=O)c1cc(C#N)c(Sc2nnc(SC)s2)nc1C(F)(F)F` [Compound 0055], for which the ΔTm at 25 µM was -9.69 °C. Same read-out and setting: with `CCC(C(=O)C(C)C(O)C(C)CCc1ccc(C)c(O)c1C(=O)O)C1OC(CC)(C2CCC(O)(CC)C(C)O2)CC1C` (centres unmarked) [Compound 0056] the figure was -5.96 °C; with `O=C(CSc1nnc(-c2ccccc2)n1-c1ccc(F)cc1)NCc1ccccc1` [Compound 0057], -10.5 °C; with `Cc1ccc(NC(=O)Nc2cccc(C(F)(F)F)c2)cc1` [Compound 0058, 1-(p-tolyl)-3-(3-(trifluoromethyl)phenyl)urea], 2.58 °C. On to `O=C(Nc1ccc(F)cc1)Nc1cccc(Cl)c1` [Compound 0060, 1-(3-chlorophenyl)-3-(4-fluorophenyl)urea], for which the ΔTm at 25 µM came out at 2.5 °C. Turning to `O=C(Nc1cccc(Cl)c1)Nc1ccc(Cl)c([N+](=O)[O-])c1` [Compound 0061, 1-(4-chloro-3-nitrophenyl)-3-(3-chlorophenyl)urea], the ΔTm at 25 µM was 2.94 °C. In the case of `O=[N+]([O-])c1cc(C(F)(F)F)cc([N+](=O)[O-])c1Oc1ccc(C2SCCS2)cc1` [Compound 0062], the ΔTm at 25 µM is -6.9 °C. Consider `Cc1cccc(NC(=O)Nc2cccc(Cl)c2)c1` [Compound 0063, 1-(3-chlorophenyl)-3-(m-tolyl)urea], for which the ΔTm at 25 µM was determined as 2.5 °C.

With `CSc1sc(NC(=O)Nc2cccc(C(F)(F)F)c2)cc1C#N` [Compound 0065], the ΔTm at 25 µM is 4.44 °C. `O=C(Nc1ccc(Cl)cc1)Nc1cccc(Cl)c1` [Compound 0066, 1-(3-chlorophenyl)-3-(4-chlorophenyl)urea]: the ΔTm at 25 µM is 3 °C. For the molecule `Cc1cccc(NC(=O)Nc2cccc([N+](=O)[O-])c2)c1` [Compound 0067, 1-(3-nitrophenyl)-3-(m-tolyl)urea], the ΔTm at 25 µM came out at 4 °C. As to `Cc1ccc(NC(=O)Nc2cccc(Cl)c2)cc1` [Compound 0068, 1-(3-chlorophenyl)-3-(p-tolyl)urea], the ΔTm at 25 µM came to 2.75 °C. As for `O=C(N/N=C/c1ccc(Br)s1)c1[nH]cc2ccccc12` [Compound 0069], the ΔTm at 25 µM was found to be 8.06 °C.

For the molecule `COc1cc(C(=O)Oc2c(Cl)cc(Cl)cc2/C=N\c2cccc(C(F)(F)F)c2)cc(OC)c1OC` [Compound 0070], the ΔTm at 25 µM was -7.24 °C. Turning to `Cc1ccc(C(=O)/C=C(\c2ccccc2)N2CCCCC2)cc1` [Compound 0071], the ΔTm at 25 µM is -6.24 °C. With `CCOC(=O)CCc1ccc(Oc2c([N+](=O)[O-])cc(C(F)(F)F)cc2[N+](=O)[O-])cc1` [Compound 0072], the ΔTm at 25 µM stood at 3.39 °C.

For `CC(C)(C)CC(C)(C)c1ccc(O)c(Cc2ccc(Cl)cc2Cl)c1` [Compound 0073], the ΔTm at 25 µM was 2.6 °C. For `O=C(Nc1cc(Cl)cc(Cl)c1)Nc1cc(-c2cccs2)n[nH]1` [Compound 0074], the ΔTm at 25 µM turned out to be 2.61 °C.

Regarding `Cc1ccc(NC(=O)Nc2ccc(Br)c(C(F)(F)F)c2)cc1` [Compound 0075, 1-(4-bromo-3-(trifluoromethyl)phenyl)-3-(p-tolyl)urea], the ΔTm at 25 µM came out at 2.61 °C.

Still in this assay, the particulars now being: Table 3; 5 μM HSF1 DBD, 25PM Compound; positive = stabilizes, negative = destabilizes HSF1.
Regarding `O=S1(=O)N=C(Nc2ccc(F)cc2)C(Nc2ccc(Cl)c(C(F)(F)F)c2)=N1` [Compound 033, N3-[4-chloro-3-(trifluoromethyl)phenyl]-N4-(4-fluorophenyl)-1,1-dioxo-1,2,5-thiadiazole-3,4-diamine], the ΔTm at 25 µM was 1.9 °C. For the molecule `O=C(Nc1ccc(F)c(F)c1)Nc1ccc(Cl)c([N+](=O)[O-])c1` [Compound 034, 1-(4-chloro-3-nitrophenyl)-3-(3,4-difluorophenyl)urea], the ΔTm at 25 µM was determined as 5.7 °C. On to `COc1ccc(NC(=O)Nc2ccc(Cl)cc2)cc1` [Compound 036, 1-(4-chlorophenyl)-3-(4-methoxyphenyl)urea], for which the ΔTm at 25 µM is 2.61 °C. In the case of `O=C(Nc1ccc(Cl)c(Cl)c1)Nc1ccc(Cl)c([N+](=O)[O-])c1` [Compound 044, 1-(4-chloro-3-nitrophenyl)-3-(3,4-dichlorophenyl)urea], the ΔTm at 25 µM was 2.33 °C. For `Cc1ccc(NC(=O)Nc2ccc(Cl)c([N+](=O)[O-])c2)cc1` [Compound 046, 1-(4-chloro-3-nitrophenyl)-3-(p-tolyl)urea], the ΔTm at 25 µM was found to be 4.3 °C. With `N#CN=C(Nc1ccc(F)cc1)Nc1ccc(Cl)c([N+](=O)[O-])c1` [Compound 047, 1-(4-chloro-3-nitro-phenyl)-2-cyano-3-(4-fluorophenyl)guanidine], the ΔTm at 25 µM was 0.75 °C. Turning to `O=C(Nc1ccc(Cl)cc1)Nc1ccc(Cl)c([N+](=O)[O-])c1` [Compound 048, 1-(4-chloro-3-nitrophenyl)-3-(4-chlorophenyl)urea], the ΔTm at 25 µM worked out at 2.61 °C. On to `O=C(Nc1ccc(Cl)cc1)Nc1cccc([N+](=O)[O-])c1` [Compound 049, 1-(4-chlorophenyl)-3-(3-nitrophenyl)urea], for which the ΔTm at 25 µM came out at 3.11 °C.

As to `O=C(Nc1ccc(F)cc1)Nc1ccc(Cl)c(S(=O)(=O)C(F)(F)F)c1` [Compound 054, 1-[4-chloro-3-(trifluoromethylsulfonyl)phenyl]-3-(4-fluorophenyl)urea], the ΔTm at 25 µM is 2.9 °C. As to `Cc1ccc(NC(=O)Nc2cccc(C(F)(F)F)c2)cc1` [Compound 058, 1-(p-tolyl)-3-(3-(trifluoromethyl)phenyl)urea], the ΔTm at 25 µM amounted to 2.58 °C. In the case of `O=C(Nc1ccc(F)cc1)Nc1cccc(Cl)c1` [Compound 060, 1-(3-chlorophenyl)-3-(4-fluorophenyl)urea], the ΔTm at 25 µM was 2.5 °C. As to `O=C(Nc1cccc(Cl)c1)Nc1ccc(Cl)c([N+](=O)[O-])c1` [Compound 061, 1-(4-chloro-3-nitrophenyl)-3-(3-chlorophenyl)urea], the ΔTm at 25 µM amounted to 2.94 °C. Still for that read-out and setting: with `O=c1c(Nc2ccc(F)cc2)c(Nc2ccc(Cl)c(C(F)(F)F)c2)c1=O` [Compound 064, 3-[4-chloro-3-(trifluoromethyl)anilino]-4-(4-fluoroanilino)cyclobut-3-ene-1,2-dione] the figure was 2.3 °C; with `O=C(Nc1ccc(Cl)cc1)Nc1cccc(Cl)c1` [Compound 066, 1-(3-chlorophenyl)-3-(4-chlorophenyl)urea], 3 °C; with `Cc1cccc(NC(=O)Nc2cccc([N+](=O)[O-])c2)c1` [Compound 067, 1-(3-nitrophenyl)-3-(m-tolyl)urea], 4 °C. As for `Cc1ccc(NC(=O)Nc2cccc(Cl)c2)cc1` [Compound 068, 1-(3-chlorophenyl)-3-(p-tolyl)urea], the ΔTm at 25 µM is 2.75 °C. The same measure, in the same setting: in the case of `Cc1ccc(NC(=O)Nc2ccc(Br)c(C(F)(F)F)c2)cc1` [Compound 075, 1-(4-bromo-3-(trifluoromethyl)phenyl)-3-(p-tolyl)urea] it was 2.61 °C.
